Laboratory results from PMC11110727, “Exploiting thiol-functionalized benzosiloxaboroles for achieving diverse substitution patterns – synthesis, characterization and biological evaluation of promising antibacterial agents” (RSC Medicinal Chemistry, 2024).
Values after ≈ are worked out from the molar mass of the structure shown.

How the values were obtained:
C. albicans ATCC 90028 = test: Antifungal activity: MIC/MFC, disc-diffusion; type: cell-based, Candida albicans; details: for MIC: Candida albicans, ATCC90028, read-out: MIC; for diameter of inhibition zone: C. albicans ATCC 90028, (-) = zone not observed, paper discs 9 mm
Method: (§1) Direct antimicrobial activity was determined against the following standard strains: (1) Gram-positive cocci: methicillin-sensitive Staphylococcus aureus ATCC 6538P (MSSA), methicillin-resistant S. aureus subsp. aureus ATCC 43300 (MRSA), S. epidermidis ATCC 12228, Enterococcus faecium ATCC 6057, E. faecalis ATCC 29212, Bacillus subtilis ATCC 6633; (2) Gram-negative bacteria from Enterobacteriales order: Klebsiella pneumoniae ATCC 13883, Escherichia coli ATCC 25922, Enterobacter cloacae DSM 6234, Proteus mirabilis ATCC 12453, Serratia marcescens ATCC 13880; (3) Gram-negative non-fermentative rods: Acinetobacter baumannii ATCC 19606, Pseudomonas aeruginosa ATCC 27853, Stenotrophomonas maltophilia ATCC 12714, S. maltophilia ATCC 13637, Burkholderia cepacia ATCC 25416, Bordetella bronchiseptica ATCC 4617; (4) yeasts: Candida albicans ATCC 90028, C. krusei ATCC 6258, C. parapsilosis ATCC 22019, C. tropicalis (Castellani) Berkhout ATCC 750, C. tropicalis IBA 171, C. guilliermondii IBA 155, and Saccharomyces cerevisiae ATCC 9763. Moreover, 5 clinical strains of methicillin-resistant S. aureus were also included: NMI 664 K, NMI 1576 K, NMI 1712 K, NMI 1991 K, and NMI 2541 K. All strains were stored at −80 °C. Prior to testing, each bacterial strain was subcultured twice on tryptic soy agar TSA (bioMerieux) medium and yeast strains on Sabouraud dextrose agar (bioMerieux) for 24–48 h at 30 °C to ensure viability. The antimicrobial activity was evaluated as previously described[26] by the disc-diffusion method and the MIC determination assays according to the EUCAST (ref. [71] and [72]) and CLSI (ref. [53] and [73]) recommendations. Assessment of bactericidal (MBC) and fungicidal (MFC) activities was performed according to the CLSI recommendations.[54,74] The following reference agents were used: fluconazole (in the case of fungi), linezolid (for Gram-positive bacteria), and nitrofurantoin (for Gram-negative rods). The new benzosiloxaboroles were dissolved in DMSO (Sigma).

P. aeruginosa ATCC 27853 = test: Antibacterial activity: MIC/MBC, MIC with PAβN, disc-diffusion; type: cell-based; details: Pseudomonas aeruginosa, ATCC27853, P. aeruginosa ATCC 27853; for MIC: read-out: MIC
Method: as §1, with “The following reference agents were used: fluconazole (in the case of fungi), linezolid (for Gram-positive bacteria), and nitrofurantoin (for Gram-negative rods).” left out
(§2) Considering that the MDR efflux pumps often contribute to Gram-negative rod resistance, the MIC values of studied agents, with or without the pump inhibitor, PAβN (20 μg mL^−1) (Sigma), were determined.[75] The MIC was determined using Mueller–Hinton II broth medium (MHB) (Becton Dickinson) by the broth microdilution method, according to the CLSI guideliness.[53] To minimize the influence of PAβN on the destabilization of bacterial cell covers, the tests were conducted in the presence of 1 mM MgSO4 (Sigma).[76] At least a 4-fold reduction in the MIC value after the addition of PAβN was considered significant.[56,77]

C. krusei ATCC 6258 = test: Antifungal activity: MIC/MFC, disc-diffusion; type: cell-based; details: for MIC: read-out: MIC; for diameter of inhibition zone: (-) = zone not observed, paper discs 9 mm
Method: as §1, with “The following reference agents were used: fluconazole (in the case of fungi), linezolid (for Gram-positive bacteria), and nitrofurantoin (for Gram-negative rods).” left out

S. marcescens ATCC 13880 = test: Antibacterial activity: MIC/MBC, MIC with PAβN, disc-diffusion; type: cell-based, Serratia marcescens; details: S. marcescens ATCC 13880; for MIC: Serratia marcescens, ATCC13880, read-out: MIC; for diameter of inhibition zone: (-) = zone not observed, paper discs 9 mm; for -fold reduction of MIC in the presence of PAβN: PAβN 20 μg mL^−1, MHB + 1 mM MgSO4
Method: as §1, with “The following reference agents were used: fluconazole (in the case of fungi), linezolid (for Gram-positive bacteria), and nitrofurantoin (for Gram-negative rods).” left out
as §2

P. mirabilis ATCC 12453 = test: as above; type: cell-based, Proteus mirabilis; details: P. mirabilis ATCC 12453; for MIC: Proteus mirabilis, ATCC12453, read-out: MIC; for diameter of inhibition zone: (-) = zone not observed, paper discs 9 mm; for -fold reduction of MIC in the presence of PAβN: PAβN 20 μg mL^−1, MHB + 1 mM MgSO4
Method: as §1, with “The following reference agents were used: fluconazole (in the case of fungi), linezolid (for Gram-positive bacteria), and nitrofurantoin (for Gram-negative rods).” left out
as §2

[1] = test system: S. aureus ATCC 43300 MRSA; test: Antibacterial activity: MIC/MBC determination and disc-diffusion; type: cell-based; details: Staphylococcus aureus, S. aureus ATCC 43300 MRSA; for MBC: read-out: MBC (first MBC where Eagle effect); for MIC: read-out: MIC
Method: as §1

E. faecalis ATCC 29212 = test: as above; type: cell-based; details: Enterococcus faecalis, ATCC29212, E. faecalis ATCC 29212; for MIC: read-out: MIC
Method: as §1

E. faecium ATCC 6057 = test: as above; type: cell-based; details: Enterococcus faecium, ATCC6057; E. faecium ATCC 6057; read-out: MIC
Method: as §1

[2] = test system: S. epidermidis ATCC 12228; test: as above; type: cell-based; details: Staphylococcus epidermidis, ATCC12228, S. epidermidis ATCC 12228; for MIC: read-out: MIC
Method: as §1

E. cloacae DSM 6234 = test: Antibacterial activity: MIC/MBC, MIC with PAβN, disc-diffusion; type: cell-based, Enterobacter cloacae; details: E. cloacae DSM 6234; for MIC: Enterobacter cloacae, DSM6234, read-out: MIC; for -fold reduction of MIC in the presence of PAβN: PAβN 20 μg mL^−1, MHB + 1 mM MgSO4
Method: as §1, with “The following reference agents were used: fluconazole (in the case of fungi), linezolid (for Gram-positive bacteria), and nitrofurantoin (for Gram-negative rods).” left out
as §2

SMILES	MIC (C. albicans ATCC 90028) [µg/mL]	MIC (P. aeruginosa ATCC 27853) [µg/mL]	MIC (C. krusei ATCC 6258; Pichia kudriavzevii, ATCC6258) [µg/mL]	MIC (S. marcescens ATCC 13880) [µg/mL]	MIC (P. mirabilis ATCC 12453) [µg/mL]	MBC [1] [µg/mL]	MIC [1] [µg/mL]	MIC (E. faecalis ATCC 29212) [µg/mL]	MIC (E. faecium ATCC 6057) [µg/mL]	MBC [2] [µg/mL]	MIC [2] [µg/mL]	MIC (E. cloacae DSM 6234) [µg/mL]	diameter of inhibition zone (C. albicans ATCC 90028) [mm]	diameter of inhibition zone (C. krusei ATCC 6258; C. krusei ATCC 6258) [mm]	other results
C[Si]1(C)OB(O)c2cc(F)c(SCCC(=O)Nc3cnccn3)c(F)c21 [Compound 10, 3-((5,7-Difluoro-3-hydroxy-1,1-dimethyl-1,3-dihydrobenzo[c][1,2,5]oxasilaborol-6-yl)thio)-N-(pyrazin-2-yl)propanamide]	> 400	> 400	> 400	> 400	> 400	400 (≈ 1010 µM)	50 (≈ 126 µM)	200 (≈ 506 µM)	100 (≈ 253 µM)	400 (≈ 1010 µM)	50 (≈ 126 µM)	> 400			
Cc1cc(NC(=O)CCSc2c(F)cc3c(c2F)[Si](C)(C)OB3O)no1 [Compound 11, 3-((5,7-Difluoro-3-hydroxy-1,1-dimethyl-1,3-dihydrobenzo[c][1,2,5]oxasilaborol-6-yl)thio)-N-(5-methylisoxazol-3-yl)propanamide]	> 400	> 400	> 400	> 400	> 400	400 (≈ 1000 µM)	50 (≈ 126 µM)	200 (≈ 502 µM)	200 (≈ 502 µM)	400 (≈ 1000 µM)	25 (≈ 62.8 µM)	> 400			
C[Si]1(C)OB(O)c2cc(F)c(SC3CC(=O)NC3=O)c(F)c21 (stereo not shown) [Compound 12, 3-((5,7-Difluoro-3-hydroxy-1,1-dimethyl-1,3-dihydrobenzo[c][1,2,5]oxasilaborol-6-yl)thio)pyrrolidine-2,5-dione]	> 400	> 400	> 400	200 (≈ 583 µM)	> 400	200 (≈ 583 µM)	12.5 (≈ 36.4 µM)	25 (≈ 72.8 µM)	12.5 (≈ 36.4 µM)	400 (≈ 1170 µM)	6.25 (≈ 18.2 µM)	> 400			diameter of inhibition zone (S. marcescens ATCC 13880): 28 mm; -fold reduction of MIC in the presence of PAβN (S. marcescens ATCC 13880): 2 -fold; diameter of inhibition zone (P. mirabilis ATCC 12453): 14 mm; -fold reduction of MIC in the presence of PAβN (P. mirabilis ATCC 12453): 4 -fold; -fold reduction of MIC in the presence of PAβN (E. cloacae DSM 6234): 8 -fold
C[Si]1(C)OB(O)c2ccc(SC3CC(=O)NC3=O)c(F)c21 (stereo not shown) [Compound 13, 3-((7-Fluoro-3-hydroxy-1,1-dimethyl-1,3-dihydrobenzo[c][1,2,5]oxasilaborol-6-yl)thio)pyrrolidine-2,5-dione]	> 400	200 (≈ 615 µM)	> 400	100 (≈ 308 µM)	400 (≈ 1230 µM)		25 (≈ 76.9 µM)	25 (≈ 76.9 µM)	12.5 (≈ 38.4 µM)		25 (≈ 76.9 µM)	400 (≈ 1230 µM)			MBC (P. aeruginosa ATCC 27853): 400 µg/mL (≈ 1230 µM); diameter of inhibition zone (S. marcescens ATCC 13880): 29 mm; -fold reduction of MIC in the presence of PAβN (S. marcescens ATCC 13880): 2 -fold; diameter of inhibition zone (P. mirabilis ATCC 12453): 18 mm; -fold reduction of MIC in the presence of PAβN (P. mirabilis ATCC 12453): 4 -fold; -fold reduction of MIC in the presence of PAβN (E. cloacae DSM 6234): 4 -fold
C[Si]1(C)OB(O)c2cc(F)c(SC3CC(=O)N(c4ccc(F)cc4)C3=O)c(F)c21 (stereo not shown) [Compound 14, 3-((5,7-Difluoro-3-hydroxy-1,1-dimethyl-1,3-dihydrobenzo[c][1,2,5]oxasilaborol-6-yl)thio)-1-(4-fluorophenyl)pyrrolidine-2,5-dione]	200 (≈ 457 µM)	> 200	12.5 (≈ 28.6 µM)	> 200	> 200		50 (≈ 114 µM)	25 (≈ 57.2 µM)	50 (≈ 114 µM)		50 (≈ 114 µM)	> 200	21	30	MFC (C. krusei ATCC 6258; Pichia kudriavzevii, ATCC6258, C. krusei ATCC 6258): 100 µg/mL (≈ 229 µM)
C[Si]1(C)OB(O)c2ccc(SC3CC(=O)N(c4ccc(F)cc4)C3=O)c(F)c21 (stereo not shown) [Compound 15, 3-((7-Fluoro-3-hydroxy-1,1-dimethyl-1,3-dihydrobenzo[c][1,2,5]oxasilaborol-6-yl)thio)-1-(4-fluorophenyl)pyrrolidine-2,5-dione]	200 (≈ 477 µM)	> 200	25 (≈ 59.6 µM)	> 200	> 200		25 (≈ 59.6 µM)	12.5 (≈ 29.8 µM)	25 (≈ 59.6 µM)		12.5 (≈ 29.8 µM)	> 200	19	29	
C[Si]1(C)OB(O)c2cc(F)c(SC3CC(=O)N(c4ccc(Br)c(C(F)(F)F)c4)C3=O)c(F)c21 (stereo not shown) [Compound 16, 1-(4-Bromo-3-(trifluoromethyl)phenyl)-3-((5,7-difluoro-3-hydroxy-1,1-dimethyl-1,3-dihydrobenzo[c][1,2,5]oxasilaborol-6-yl)thio)pyrrolidine-2,5-dione]	50 (≈ 88.3 µM)	> 200	25 (≈ 44.2 µM)	> 200	> 200	100 (≈ 177 µM)	50 (≈ 88.3 µM)	25 (≈ 44.2 µM)	50 (≈ 88.3 µM)	100 (≈ 177 µM)	50 (≈ 88.3 µM)	> 200	25	21	MBC (E. faecalis ATCC 29212): 200 µg/mL (≈ 353 µM)
